Measurements from patent US6903132B2, “Non-peptide GnRH agents, pharmaceutical compositions and methods for their use” (Agouron Pharmaceuticals, Inc., priority 2002, dated 2005).

Assays:
Experiment in all cases: Radioligand binding assay: inhibition of binding of 125I-GnRH-A to GnRH receptors (membranes)
human GnRH receptors = molecular target: T1, human GnRH receptors (Homo sapiens, UniProt P30968); settings: Human GnRH receptor; competition with 125I-GnRH-A; Ki calculated from IC50 (Cheng et al.)
T1 construct: expressed in transfected cells; host or cells: HEK 293
T1 sequence (P30968 1-328): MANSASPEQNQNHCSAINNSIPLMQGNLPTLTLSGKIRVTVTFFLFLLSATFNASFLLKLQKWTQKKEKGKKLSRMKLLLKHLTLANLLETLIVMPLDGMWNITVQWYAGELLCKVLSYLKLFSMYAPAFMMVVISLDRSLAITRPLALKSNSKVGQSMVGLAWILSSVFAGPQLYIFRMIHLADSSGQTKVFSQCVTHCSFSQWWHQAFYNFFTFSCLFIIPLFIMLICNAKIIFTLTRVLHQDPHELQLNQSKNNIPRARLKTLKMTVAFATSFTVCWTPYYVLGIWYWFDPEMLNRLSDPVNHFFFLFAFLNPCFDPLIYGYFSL
Description: (§1) HEK 293 cells stably transfected with mouse or human GnRH receptors as described above are grown in Dulbecco's high-glucose, modified Eagle's medium (DMEM) supplemented with 0.2% G418, 10% fetal bovine serum (FBS) and 100U/mL penicillin/streptomycin. GH3 cells stably transfected with the rat GnRH receptor (GGH3) were provided by Dr. William Chin (Harvard Medical School, Boston, Mass.). These cells are extensively characterized previously (Kaiser et al., 1997). The cells are grown in low glucose DMEM containing: 100U/mL penicillin/streptomycin, 0.6% G418 and 10% heat-inactivated FBS.
(§2) HEK 293 cells containing mouse or human receptors, or rat pituitaries (Pel Freez Biologicals, Rogers, Ark.) are homogenized in buffer A containing: 50 mM Tris (pH 7.4), 0.32 M sucrose, 2 mM EGTA, 1 mM PMSF, 5 μg/ml aprotinen, 5 μg/ml Pepstatin A, and 1 μg/ml leupeptin. Homogenized cells are centrifuged at 4° C. at 20,000×g for 25 minutes, re-suspended in buffer A and re-centrifuged at 4° C. at 20,000×g for an additional 25 minutes. Total membrane protein was determined with a BCA kit (Pierce, Rockford, Ill.). Membranes are stored at −70° C. at a final membrane protein concentration of approximately 5 mg/ml.
(§3) The radioiodinated agonist analog of GnRH, [des-Gly^10, D-Ala^6]GnRH ethylamide (^125I-GnRH-A), is used as the radioligand. One μg of GnRH-A diluted in 0.5 M phosphate buffer (pH 7.4) is added to an lodogen®-coated borosilicate glass tube (Pierce, Rockford, Ill.) containing 35 μl of 0.05 M phosphate buffer (pH 7.4-7.6) and 1 mCi of Na[^125I]. The reaction mixture is vortexed and incubated for 1 minute at room temperature. After one minute, the mixture is vortexed and allowed to incubate for an additional minute. 2 ml of 0.5 M acetic acid/1% BSA is added to the reaction tube and the mixture is added to a C18 Sep-Pak cartridge. The cartridge is washed with subsequent washes of 5 ml H2O and 5 ml 0.5 M acetic acid and then eluted with 5×1 ml of 60%CH3CN/40% 0.5 M acetic acid. The eluate is diluted with 3× volume of HPLC buffer A (0.1% TFA in H2O) and loaded onto a C18 column. The iodinated product is eluted over 20-25 min with a gradient of 25-100% CH3CN containing 0.1% TFA. The radioactive fractions (750 μl/fraction) are collected into clean polypropylene tubes containing 100 μl of 10% BSA. Fractions are assessed for biological activity by radiolig and binding. Specific activity of the radioligand was approximately 2200 Ci/mmol.
(§4) Membranes are diluted to 0.01-0.5 mg/ml (depending upon the species of receptor) with assay buffer containing 50 mM HEPES (pH 7.4), 1 mM EDTA, 2.5 mM MgCl2, and 0.1% BSA. Membranes (diluted to utilize similar receptor numbers between assays) are incubated with approximately 0.04-0.06 nM ^125I-GnRH-A in the presence or absence of competing agents (0.1-10,000 nM) in a total volume of 200 μl in 96-well polypropylene plates for 1 hour at room temperature. Assays are stopped by rapid filtration onto 96-well GF/C filters soaked in 0.1% polyethylenimine (PEI) utilizing a Packard 96-well cell harvester. Filters are washed three times with ice-cold PBS (50 mM NaPO4, 0.9% NaCl, 2 mM MgCl2, and 0.02% NaN3, pH 7.4). 35 μl of scintillation cocktail is added to each filter well and filters are counted on a Packard Topcount. Control dose-response curves are generated to GnRH (0.1 nM-100 nM) in each competition binding experiment. Ki values were calculated from IC50 values according to Cheng et al., Biochemical Pharmacol. 22: 3099-3108, 1973. [formula]

mouse GnRH receptors = molecular target: T2, mouse GnRH receptors (Mus musculus, UniProt Q01776); settings: Mouse GnRH receptor; competition with 125I-GnRH-A; Ki calculated from IC50 (Cheng et al.)
T2 construct: expressed in transfected cells; host or cells: HEK 293
T2 sequence (Q01776 1-327): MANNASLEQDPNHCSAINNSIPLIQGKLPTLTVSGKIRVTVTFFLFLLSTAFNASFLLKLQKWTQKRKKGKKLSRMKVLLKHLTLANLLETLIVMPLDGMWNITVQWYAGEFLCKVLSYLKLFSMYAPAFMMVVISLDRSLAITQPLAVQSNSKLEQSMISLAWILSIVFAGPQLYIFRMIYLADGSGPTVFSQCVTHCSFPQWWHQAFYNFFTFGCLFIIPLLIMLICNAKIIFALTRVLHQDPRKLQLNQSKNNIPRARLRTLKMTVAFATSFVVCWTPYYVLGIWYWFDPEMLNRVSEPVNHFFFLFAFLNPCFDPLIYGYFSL
Description: as §1, §2, §3, §4

rat GnRH receptor = molecular target: T3, rat GnRH receptor (Rattus norvegicus, UniProt P30969); settings: competition with 125I-GnRH-A, Ki calculated from IC50 (Cheng et al.)
T3 construct: rat pituitaries (Pel Freez Biologicals, Rogers, Ark.) are homogenized in buffer A; tissue Pel Freez Biologicals; host or cells: rat pituitaries
T3 sequence (P30969 1-327): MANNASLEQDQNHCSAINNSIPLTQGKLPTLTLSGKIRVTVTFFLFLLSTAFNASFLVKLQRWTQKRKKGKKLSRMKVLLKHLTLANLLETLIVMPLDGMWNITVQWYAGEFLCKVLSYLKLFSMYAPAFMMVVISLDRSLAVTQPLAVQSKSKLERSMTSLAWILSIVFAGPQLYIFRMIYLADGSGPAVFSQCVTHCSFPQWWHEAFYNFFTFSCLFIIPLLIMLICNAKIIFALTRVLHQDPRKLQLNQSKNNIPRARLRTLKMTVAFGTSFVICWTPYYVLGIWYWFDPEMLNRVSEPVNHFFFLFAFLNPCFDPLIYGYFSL
Description: as §1, §2, §3, §4

SMILES | Ki (human GnRH receptors) [nM] | Ki (mouse GnRH receptors) [nM] | Ki (rat GnRH receptor) [nM]
Cc1cc2c(cc1Oc1ccc(C(=O)NNc3ccc4ccccc4n3)o1)C(C)(C)CC(C)C2(C)C (stereo not drawn) [Example I20, 5-(3,5,5,6,8,8-Hexamethyl-5,6,7,8-tetrahydro-naphthalen-2-yloxy)-furan-2-carboxylic acid N′-quinolin-2-yl-hydrazide] | 3.8 | 4 | 7.3
Cc1ccc(C2CCCCC2)cc1Cc1ccc(C(=O)NNc2cc(C)c3c(C)nn(C)c3n2)o1 [Example J16, 5-(5-cyclohexyl-2-methylbenzyl)-N′-(1,3,4-trimethyl-1H-pyrazolo[3,4-b]pyridin-6-yl)-2-furohydrazide] | 97 | 233 | 122
Cc1cc2c(c(C)c1Oc1ccc(C(=O)NNc3cc(C)c4c(C)nn(C)c4n3)o1)C(C)(C)CCC2(C)C [Example I9, 5-(1,3,5,5,8,8-Hexamethyl-5,6,7,8-tetrahydro-naphthalen-2-yloxy)-furan-2-carboxylic acid N′-(1,3,4-trimethyl-1H-pyrazolo[3,4-b]pyridin-6-yl)-hydrazide] | 1.2 | 2.1 | 3.8
COc1c(Oc2ccc(C(=O)NNc3cc(C)c4c(C)nn(C)c4n3)o2)c(C)cc2c1C(C)(C)CCC2(C)C [Example I28, 5-(1-Methoxy-3,5,5,8,8-pentamethyl-5,6,7,8-tetrahydro-naphthalen-2-yloxy)-furan-2-carboxylic acid N′-(1,3,4-trimethyl-1H-pyrazolo[3,4-b]pyridin-6-yl)-hydrazide] | 0.3 | 2.6 | 4.2
Cc1ccc(C(C)(C)C)cc1Cc1ccc(C(=O)NNc2ccc3ccccc3n2)o1 [Example B3, 5-[5-(tert-butyl)-2-methylbenzyl]-N′-(2-quinolinyl)-2-furohydrazide] | 95 | 84 | 65
Cc1cc2c(c(Br)c1Oc1ccc(C(=O)NNc3cc(C)c4c(C)nn(C)c4n3)o1)C(C)(C)CCC2 [Example I11, 5-(1-Bromo-3,8,8-trimethyl-5,6,7,8-tetrahydro-naphthalen-2-yloxy)-furan-2-carboxylic acid N′-(1,3,4-trimethyl-1H-pyrazolo[3,4-b]pyridin-6-yl)-hydrazide] | 170 | 250 | 790
COc1c(C(C)C)cc(Cl)c(C)c1Cc1ccc(C(=O)NNc2cc(C)c3c(C)nn(C)c3n2)o1 [Example J24, 5-(3-chloro-5-isopropyl-6-methoxy-2-methylbenzyl)-N′-(1,3,4-trimethyl-1H-pyrazolo[3,4-b]pyridin-6-yl)-2-furohydrazide] | 130 | 400 | 1130
COc1cc2c(c(C)c1Oc1ccc(C(=O)NNc3cc(C)c4c(C)nn(C)c4n3)o1)C(C)(C)CCC2(C)C [Example I25, 5-(3-Methoxy-1,5,5,8,8-pentamethyl-5,6,7,8-tetrahydro-naphthalen-2-yloxy)-furan-2-carboxylic acid N′-(1,3,4-trimethyl-1H-pyrazolo[3,4-b]pyridin-6-yl)-hydrazide] | 31 | 38 | 59
Cc1cc2c(cc1Oc1ccc(C(=O)NNc3cc(C)c4c(C)nn(C)c4n3)o1)C(C(C)C)C(C)C2(C)C (stereo not drawn) [Example I2, 5-(3-lsopropyl-1,1,2,6-tetramethyl-indan-5-yloxy)-furan-2-carboxylic acid N′-(1,3,4-trimethyl-1H-pyrazolo[3,4-b]pyridin-6-yl)-hydrazide] | 2.4 | 3.6 | 4.2
Cc1cc2c(cc1Oc1ccc(C(=O)NNc3cc(C)c4c(C)nn(C)c4n3)o1)C(C)(C)C(C)C2(C)C (stereo not drawn) [Example M4, 5-(1,1,2,3,3,6-Hexamethyl-indan-5-yloxy)-furan-2-carboxylic acid N′-(1,3,4-trimethyl-1H-pyrazolo[3,4-b]pyridin-6-yl)-hydrazide] | 1.8 | 3.7 | 3.9
Cc1cc2c(cc1Cc1ccc(C(=O)NNc3ncccc3C(F)(F)F)o1)C(C)(C)CCC2(C)C [Example C11, 5-[(3,5,5,8,8-Pentamethyl-5,6,7,8-tetrahydro-2-naphthalenyl)methyl]-N′-[3-(trifluoromethyl)-2-pyridinyl]-2-furohydrazide] | 63 | 67 | 84
Cc1cc(C(F)(F)F)cc(NNC(=O)c2ccc(Cc3cc4c(cc3C)C(C)(C)CCC4(C)C)o2)n1 [Example C13, N′-[6-methyl-4-(trifluoromethyl)-2-pyridinyl]-5-[(3,5,5,8,8-pentamethyl-5,6,7,8-tetrahydro-2-naphthalenyl)methyl]-2-furohydrazide] | 220 | 130 | 240
Cc1cc2c(cc1Oc1oc(C(=O)NNc3cc(C)c4c(C)nn(C)c4n3)cc1Br)C(C)(C)CCC2(C)C [Example F3, 4-Bromo-5-[(3,5,5,8,8-pentamethyl-5,6,7,8-tetrahydro-2-naphthalenyl)oxy]-N′-[1,3,4-trimethyl-1H-pyrazolo[3,4-b]pyridin-6-yl)-2-furohydrazide] | 80 | 136 | 535
Cc1cc(NNC(=O)c2ccc(Oc3ccc4c(c3)C(C)(C)CCC4(C)C)o2)nc2c1c(C)nn2C [Example F4, 5-[(5,5,8,8-tetramethyl-5,6,7,8-tetrahydro-2-naphthalenyl)oxy]-N′-(1,3,4-trimethyl-1H-pyrazolo[3,4-b]pyridin-6-yl)-2-furohydrazide] | 126 | 450 | 384
Cc1sc2c(c1Cc1ccc(C(=O)NNc3cc(C)c4c(C)nn(C)c4n3)o1)C(C)(C)CCC2(C)C [Example J23] | 140 | 280 | 660
